Three molecules from US20240252583A1, “Compositions and Methods for Treating Persistent Postsurgical Pain” (priority 2021, published 2024) can be followed below.

In one data set the test system is stress from PPSP. The note with it: oral pill, daily administration for one week. The protocol: A subject is diagnosed with stress from PPSP. A subject is prescribed a dosing regimen of a pharmaceutical composition. The pharmaceutical composition comprises a therapeutically effective amount of RAP-103. RAP-103 is administered orally as a pill to treat the stress from PPSP.

Data set [1] in a line: Plasma pharmacokinetics and acute tolerability of RAP-103 in non-human primates. It counts as in vivo, Rhesus macaques (Macaca mulatta). The protocol: In non-human primates (rhesus monkeys) RAP-103 was dosed once on Day 1 by intravenous bolus injection at 1 mg/kg and plasma levels determined. […] Drug in plasma after a single IV dose (1 mg/Kg) was still measurable at anticipated therapeutic levels 96 hrs. post-dose in non-human primates as shown in FIG. 2B.

Data set [2] in a line: Plasma bioavailability and elimination half-life of RAP-103 (species not stated). It counts as in vivo. Particulars: oral, i.p., ss, and IV dosing.
Data set [3] is described as follows: Brain entry and pharmacokinetics of RAP-103 after oral gavage and IV dosing. Format: in vivo, rats and guinea pigs.
Data set [4] relates to post-incisional mechanical allodynia. The note with it: RAP-103 0.5 mg/kg i.p. The text has this:
Data are expressed as mean±standard error of the mean (S.E.M.), and p<0.05 was accepted as statistically significant.

Data set [5] concerns mRNAs encoding CCL2, CCL3, CCR2, CCR5, IL1β, and TNFα.
Data set [6] deals with STZ-induced diabetic neuropathic pain. The protocol: Chronic pain development was determined with behavior and molecular/cellular testing and inflammatory reactions in Streptozotocin (STZ)-induced diabetic rats treated with RAP-103.
(§1) Induction and assessment of diabetes in rats: Rats were fasted overnight and given a single intraperitoneal injection of STZ (60 mg/kg, Sigma-Aldrich) in citrate buffer (pH 4.5) to induce type I diabetes. The induction of diabetes was confirmed 72 h post-injection by blood glucose levels (Contour® blood glucose diagnostic kit, Bayer HealthCare, Canada). Body weight and blood glucose levels were measured before and 3 days post-STZ injection and once a week for three weeks post-diabetes induction. Only rats with blood glucose concentration consistently higher than 300 mg/dl were used for the study. Rats used for the study were monitored for persistent mechanical and cold allodynia (up to five months post-induction) and only animals with persistent pain were used.
This solution was prepared freshly for each experiment and kept for 8 days (duration of one experiment) at room temperature. Appropriate concentration for each dose was adjusted accordingly.
Treatment paradigms: Autoclaved water (vehicle) or RAP-103 (0.004, 0.02, 0.1 or 0.5 mg/kg b.w.) was administered daily for 8 days by oral gavage to rats with stable mechanical and cold allodynia (n=5 H2O; n=7 RAP-103).
Assessment of neuropathic pain: Tactile allodynia, mechanical sensitivity was assessed using calibrated. Animals were placed in plexiglass boxes on an elevated metal mesh floor and allowed 60 min for habituation before testing. A series of von Frey filaments with logarithmically incrementing stiffness (Stoelting) was applied perpendicular to the midplantar region of the hind paw. The 50% paw withdrawal threshold was determined using Dixon's up-down method. Withdrawal thresholds of both paws were averaged as one single value per animal.
Cold Allodynia: was assessed using the same apparatus as the von Frey test. Rats were allowed to adapt to the testing environment for at least 10 min. Then, a drop (50 μl) of acetone was applied with a glass syringe fitted with a blunted needle at the centre of the plantar face of a hind paw. Responses were monitored during 1 min after acetone application and were graded according to a 4-point scale: 0, no response; 1, quick withdrawal, flick or stamp of the paw; 2, prolonged withdrawal or repeated flicking of the paw; 3, repeated flicking of the paw with persistent licking directed at the ventral side of the paw. Cumulative scores were then obtained by summing the four scores for each rat, the minimum score being 0 (no response to any of the four trials) and the maximum possible score being 12 (repeated flicking and licking of paws on each of the four trials). Rats were habituated to the testing environment. […] All data is presented as means±SEM. Statistical analysis was performed by two-way ANOVA followed by Bonferroni post-tests. The criterion for statistical significance was p<0.05.

Data set [7] has the same test system. Particulars: oral administration for 7 days, FIG. 4. As for the experimental part: as §1, with “used. […]” for “used.”
Cold Allodynia: was assessed using the same apparatus as the von Frey test. Rats were allowed to adapt to the testing environment for at least 10 min. Then, a drop (50 μl) of acetone was applied with a glass syringe fitted with a blunted needle at the centre of the plantar face of a hind paw. Responses were monitored during 1 min after acetone application and were graded according to a 4-point scale: 0, no response; 1, quick withdrawal, flick or stamp of the paw; 2, prolonged withdrawal or repeated flicking of the paw; 3, repeated flicking of the paw with persistent licking directed at the ventral side of the paw. […]

The subject of a further data set is obesity. Particulars: oral, daily administration for 3 weeks. As for the experimental part: A subject is diagnosed with obesity. The subject is prescribed a dosing regimen of a pharmaceutical composition. The pharmaceutical composition comprises a therapeutically effective amount of RAP-103. RAP-103 is administered orally to treat obesity.
A further data set addresses CX3CR1 (Homo sapiens, UniProt P49238). Particulars: CX3CL1 2.5 nM, FIG. 8. The protocol: All peptides were purified to >95% homogeneity and verified by HPLC isolation, amino acid analysis, and mass spectroscopy. Peptides were dissolved in sterile water and stored as frozen (−20° C.) aliquots at 0.1 mM until use. Chemotaxis was assayed in 96-well plates (NeuroProbe, Cabin John, MD) with […] pore size, PVP-free membranes. Purified human monocytes (>95%) prepared from healthy adult human donors by centrifugal elutriation (>95% pure) were resuspended in chemotaxis assay buffer (DMEM supplemented with 0.1% BSA) at a density of 2×10^6 cells/ml. Cells were labelled with 1.0 μM Calcein AM (Invitrogen) for 30 minutes at 37° C., 5% CO2. Following incubation, cells were washed once and resuspended in chemotaxis assay buffer (DMEM, 1 mg/ml BSA, 25 mM Hepes) at a density of 2×10^6 cells/ml. […] The filter plate ([…] pore size, PVP-free membrane) was snapped on over the filled wells and the monocytes were loaded onto the upper filter surface ([…] in 25 μl). […] At the conclusion of the test period, non-migrating cells were wiped off the upper filter surface and relative fluorescence units (RFUs) of the migrating cells from the lower surface determined by bottom reading in a spectrometer (M5 SpectraMax) at 485/530 nm (Ex/Em). Triplicate determinations were made and results are expressed as the mean Relative Fluorescence Units as depicted in FIG. 8.

The subject of another data set is plasma cytokines. The data set is described as follows: Plasma cytokine measurements in patients treated with DAPTA (capillary electrophoresis and ELISA). Format: in vivo, humans. The text has this:
The specific cytokines IL-1β, IL-10 and IL-12 have been identified as imbalanced following total knee replacement surgeries which increases risk for persistent post-operative pain. Measurement of these cytokines may be used to predict response to therapy, such as treatment by any of the peptides, salts thereof, or compositions of these, including those herein. Since the administration of the peptide DAPTA normalizes multiple plasma cytokines associated with PPSP then DAPTA and other analogs as we have described may be used to treat chronic pain conditions, specifically PPSP. Five HIV patients received DAPTA, 3 mgs/day, by metered nasal spray for 6 to 8 weeks (mean 7+0.6 wks). Patients were not taking other concurrent anti-pain or anti-retroviral therapies. At the beginning and end of the study period heparinized blood was collected and immediately clarified by centrifugation. Plasma aliquots were made and stored frozen at −70 C° for further testing. All sample testing was done on blinded samples at independent testing centers.
Cytokine measurements in patients treated with DAPTA were made after capillary electrophoresis isolation of individual cytokine peaks, followed by enzyme-linked immunoassay using specific antibodies. […] Separated chemical compounds appear as peaks with different migration times in an electropherogram. The purified sample peaks were individually collected and concentration determined by a quantitative enzyme-linked immunosorbent assay (ELISA) using specific antibodies to determine the analyte concentration.

Setting [8] is: partial nerve ligation and diabetic pain.
[9] abbreviates: plasma, five HIV patients, 3 mgs/day nasal spray, 6 to 8 weeks.

Like-named read-outs stand apart in the source and are kept apart here. Where only a bound is given, the exact number is not on record here.

Chain of CX3CR1 (P49238 whole entry): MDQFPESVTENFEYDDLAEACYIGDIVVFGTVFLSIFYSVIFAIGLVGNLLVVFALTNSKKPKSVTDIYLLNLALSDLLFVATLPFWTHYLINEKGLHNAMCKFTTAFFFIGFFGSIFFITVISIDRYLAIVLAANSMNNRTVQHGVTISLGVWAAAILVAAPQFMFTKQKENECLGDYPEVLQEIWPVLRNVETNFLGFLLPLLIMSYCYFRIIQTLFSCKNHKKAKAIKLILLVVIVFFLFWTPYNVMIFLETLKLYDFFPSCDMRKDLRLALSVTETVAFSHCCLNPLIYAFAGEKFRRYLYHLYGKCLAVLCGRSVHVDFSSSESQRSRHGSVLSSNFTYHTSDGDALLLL

A word on the half-life: it is the time needed for the level to fall by half in the phase considered. Take `C[C@H](O)[C@@H](N)C(=O)N[C@@H](C(=O)N[C@H](CC(N)=O)C(=O)N[C@H](Cc1ccc(O)cc1)C(=O)N[C@@H](C(=O)O)[C@H](C)O)[C@H](C)O` [RAP-103, All D-peptide-Thr-Thr-Asn-Tyr-Thr]: the “stress and pain in patient suffering from PPSP” value in the data set with stress from PPSP is “reduced”. For the same molecule, the “Cmax and AUC 0-T in male versus female monkeys” value in [1] (1 mg/kg) was “comparable”. The “RAP-103-related changes in clinical observations or body weights” value in data set [1] (over seven days after dosing) is listed as “no acute toxicity”. In addition, the “time post-dose at which drug in plasma was still measurable at anticipated therapeutic levels” value in data set [1] (single IV dose 1 mg/Kg, FIG. 2B) was no less than 96 h. The half-life in data set [2] (in vivo, read-out: half-life (HL) elimination (converted)) is roughly 2.7 h. For the same molecule, the plasma bioavailability result in data set [2] is “significant plasma bioavailability”. The “brain entry by oral compared to IV dosing” value in [3] (FIG. 2A) is “preferentially entered the brain by oral compared to IV dosing”. Also, in [3] (IV or oral gavage dosing), the brain entry entry is listed as “quickly entered the brain”. Moreover, the “persistence at therapeutic levels in brain” value in [3] (IV or oral gavage dosing, FIG. 2A) is “at least 24 hrs”. Further, the “brain entry compared to plasma levels” value in data set [3] (in vivo) is reported as “preferentially enters the brain compared to plasma levels”. Moreover, in [4], the “increase of the potency of morphine” value was “over 2 fold”. For the same molecule, in data set [5] (neuropathic pain, FIG. 5), the “chemokine receptor CCR2” value was “lowered” and the “chemokine receptor CCR5” value is reported as “lowered”. The “spinal cord mRNA encoding cytokines and chemokines” value in [5] (oral administration for 7 days versus vehicle (H20), FIG. 5) is reported as “reductions”. In addition, in [5] (setting [8]), the CCL3 entry is recorded as “significantly reduced”, the IL-1β entry is given as “significantly reduced” and the TNFα entry is listed as “significantly reduced”. Further, the “effect on mechanical allodynia by dose” value in data set [6] (0.004 mg/kg daily oral) is given as “not”. The “effect on mechanical allodynia by dose” value in [6] (0.02 mg/kg daily oral) is recorded as “effective”. For the same molecule, in [6] (0.1 mg/kg daily oral), the “effect on mechanical allodynia by dose” value is reported as “effective”. Also, the “effect on mechanical allodynia by dose” value in [6] (0.5 mg/kg daily oral) is recorded as “effective”. For the same molecule, in data set [6] (daily oral gavage), the “time until reversal of hypersensitivity became significant” value was in the range of 24 to 48 h. The cold allodynia result in [7] is on record as “reductions”. The “subject's weight” value in the data set on obesity is recorded as “decreases”.

Regarding all-D-ASTTTNYT [RAP-310], the “CX3CR1 mediated human monocyte chemotaxis, % of control migration” value at CX3CR1 (0.01 pM) is given as 38 % of control migration; at CX3CR1 (1 pM) it was 24 % of control migration.

For dASTTTNYT-NH2 [DAPTA], in the data set on plasma cytokines (intranasal dosing, P<0.005), the “cytokines IL-4, IL-10, IL-12 and IL-13” value is on record as “increased significantly”; the “plasma levels of IL-1β, IL-6, IL-8, and TNFα” value was “significant reductions”. In the data set on plasma cytokines (plasma, **p < .005), the “IL-1β % CHANGE BASELINE to POST-DRUG” value is reported as −46%**, the “IL-2 % CHANGE BASELINE to POST-DRUG” value is reported as “+395** %”, the “IL-4 % CHANGE BASELINE to POST-DRUG” value is “+448** %” and the “IL-6 % CHANGE BASELINE to POST-DRUG” value was −28%**. Besides, in the data set on plasma cytokines (plasma, **p < .005), the “IL-8 % CHANGE BASELINE to POST-DRUG” value is −30%**, the “IL-10 % CHANGE BASELINE to POST-DRUG” value is listed as “+350** %”, the “IL-12 % CHANGE BASELINE to POST-DRUG” value was “+363** %” and the “IL-13 % CHANGE BASELINE to POST-DRUG” value was “+416** %”. For the same molecule, the “TNFα % CHANGE BASELINE to POST-DRUG” value in the data set on plasma cytokines (plasma, **p < .005) is reported as −23%**. Further, in the data set with plasma cytokines (setting [9]), the “IL-1β CYTOKINE MEAN ± s.e.m. Post-Treatment” value was 174 ± 26 pgs/ml, the “IL-2 CYTOKINE MEAN ± s.e.m. Post-Treatment” value is listed as 57 ± 9 pgs/ml, the “IL-4 CYTOKINE MEAN ± s.e.m. Post-Treatment” value was 28 ± 8 pgs/ml and the “IL-6 CYTOKINE MEAN ± s.e.m. Post-Treatment” value came out at 130 ± 21 pgs/ml. Besides, in the data set with plasma cytokines (setting [9]), the “IL-8 CYTOKINE MEAN ± s.e.m. Post-Treatment” value is 144 ± 76 pgs/ml, the “IL-10 CYTOKINE MEAN ± s.e.m. Post-Treatment” value is given as 45 ± 5 pgs/ml, the “IL-12 CYTOKINE MEAN ± s.e.m. Post-Treatment” value is recorded as 33 ± 7 pgs/ml and the “IL-13 CYTOKINE MEAN ± s.e.m. Post-Treatment” value was determined as 30 ± 9 pgs/ml. Moreover, in the data set with plasma cytokines (setting [9]), the “TNFα CYTOKINE MEAN ± s.e.m. Post-Treatment” value was found to be 260 ± 67 pgs/ml.
